According to publication PMC12397098, “3-Monothiopomalidomide, a new immunomodulatory imide drug (IMiD), blunts inflammation and mitigates ischemic stroke in the rat” (GeroScience, 2025):
Read-outs that look alike come from different tables or passages of the source.

Key:
[1] = tested on: LPS-induced cytokines (TNF-α, IL-6, IL-10, IL-13) in plasma and cerebral cortex; experiment: Systemic and brain LPS anti-inflammatory study in rats; assay type: in vivo; conditions: rat, 1 h pre-treatment, 3-MP 13.23 and 26.47 mg/kg I.P., pomalidomide 25 mg/kg I.P., LPS 1 mg/kg I.P., 4 h
[2] = Sprague Dawley, rat, 1 μM
[3] = in vitro; conditions: Sprague Dawley, rat, microsomes
[4] = tested on: human PBMCs; experiment: LDH in media of LPS-challenged human PBMCs (cellular toxicity); assay type: cell-based; conditions: 10 ng/ml LPS, 24 h, 3-MP 0 to 30 μM, vs LPS alone
Experimental: Human peripheral blood mononuclear cells (PBMCs), purchased from ATCC (Cat no. PCS-800–011, Lot no. 81215231, Manassas, VA, USA), were washed with ice-cold HBSS (ATCC 30–2213) containing 10% fetal bovine serum (FBS: ATCC 30–2020) and used for the experiment directly. The washed cells were suspended and maintained in RPMI media supplemented with 10% FBS, penicillin 100 U/mL, and streptomycin 100 µg/mL at 37 °C and 5% CO2. Approximately 5 × 10^5 cells were seeded into 24-well plates and allowed to equilibrate for 2 h. Pomalidomide or 3-MP, dissolved in 100% tissue culture grade dimethylsulfoxide (DMSO: Sigma Aldrich, St Louis, MO, USA), was then added to the wells. The final concentrations of drugs were 0.0, 0.6, 1.0, 10, 30, and 60 µM (n = 3–4 for each group). At 1 h after initiation of treatment, the cells were challenged with lipopolysaccharide (LPS, Sigma Aldrich, E.Coli 055:B5, Cat no. L4005-100MG, Lot no. 0000218759, Endotoxin Unit: 500,000 EU/mg, at a concentration of 10 ng/mL), and the media was collected after a further 24 h for evaluation of lactate dehydrogenase (LDH) activity as a marker of drug-induced cellular toxicity and concentrations of nitrite (In Vitro Toxicology Assay Kit, Lactic Dehydrogenase based, Promega, Cat no. G7891, Madison, WI, USA) (Griess Reagent System, Promega, Cat no. G2930) and TNF-α (human TNF-α ELISA MAX™ Deluxe Set Cat no. […]

[5] = Brain entry in rats (brain and plasma at 5 h); assay type: in vivo; conditions: male, Fischer 344, rat, brain
Experimental: The animals were euthanized at 5 h post-dosing, and plasma and a brain sample were taken, frozen to − 80 °C, and later assayed for 3-MP by LC–MS/MS.
LC–MS/MS analysis was performed with a Vanquish Flex UHPLC (Thermo Scientific, Waltham MA, USA) and an Orbitrap Exploris 240 mass spectrometer (Thermo Scientific). Samples were separated on a C18 UHPLC column (100 mm × 2.1 mm, 3 μm; Thermo Scientific). The mobile phase A for LC separation was 0.1% formic acid and the mobile phase B was 0.1% formic acid in methanol. The chromatography gradient was initiated at 95% A and 5% B at zero time. This was continued for 1 min and, thereafter, linearly changed to 5% A and 95% B by 9 min. This was then maintained for a further 3 min. The flow rate was 0.3 mL/min, and the injection volume was 2 μl. Mass spectra were acquired using the data-dependent Top 4 MS2 (ddMS2) method with a mass scan (100–1000 m/z) and 120,000 MS resolution.

SMILES: Nc1cccc2c1C(=S)N(C1CCC(=O)NC1=O)C2=O (stereo not shown) [3-MP, 3-Monothiopomalidomide]
- LPS-induced cytokine changes in plasma and cerebral cortex [1]: significantly mitigated
- reduction of 3-MP levels following 60-min incubation ([2]; 60 min): 24.3%
- Remaining (NCF = 60 min) ([2]; microsomes, 1 h): 116.4%
- Remaining (T = 60 min) ([2]; microsomes, 1 h): 75.7%
- CLint scaled at 1 μM [3]: < 17.3 mL/min/kg
- half-life at 1 μM [3]: > 2.42 h
- microsomal CLint at 1 μM [3]: < 9.6 µL/min/mg
- LDH media levels [4]: without elevating
- Kp at 5 h ([5]; ip, 13.25 mg/kg, 13.25 mg/kg I.P., read-out: Brain/plasma ratio): 0.52
- Kp at 5 h ([5]; ip, 26.5 mg/kg, 26.5 mg/kg I.P., read-out: Brain/plasma ratio): 0.61
- Kp at 5 h ([5]; other: I.P. or P.O., 13.25 or 26.50 mg/kg I.P. or P.O., read-out: brain concentrations as % of concomitant plasma levels): 0.51 to 0.61
- Kp at 5 h ([5]; other: I.P. or oral (P.O.), across I.P. and P.O. doses, read-out: brain/plasma concentration ratio): 0.5 to 0.6
- Kp at 5 h ([5]; po, 26.5 mg/kg, 26.5 mg/kg P.O., read-out: Brain/plasma ratio): 0.51
